{
  "source": "patent US5561122A",
  "about": "“Combretastatin A-4 prodrug” (Arizona Board of Regents acting on behalf of Arizona State …, priority 1994, dated 1996)",
  "key": {"cancer cell": {"tested_on": "cancer cell", "conditions": "Von Hoff et al., 1993; cited from earlier work"}, "[1]": {"tested_on": "NCI 60 cell line panel (human tumor cell lines)", "experiment": "NCI 60 cell line full-panel screen (growth inhibition) with COMPARE analysis", "type": "cell-based", "conditions": "for GI50: Homo sapiens, 60 cell, read-out: mean panel GI50 concentration", "excerpt": "The following measures are used to express drug activity by giving the drug dose which reduces cell growth to a specified percentage of growth:\nED50 (P388) and GI50 (HTCL) are the drug doses needed to reduce the percent growth to 50%. There is no mathematical difference between ED50 and GI50, which are both calculated using the same formula. The only difference is historical usage.\nTotal Growth Inhibition (\"TGI\") is the drug dose needed to yield zero percent growth, i.e., just as many cells at the end of the experiment as were present in the beginning. Whether just as many cells were killed as were produced (steady state), or no growth occurred (total inhibition), cannot be distinguished.\nLethal Concentration 50% (\"LC50 \") is the drug concentration which reduces growth to -50%, i.e., removes half of the cells originally present at the beginning of the experiment.\nEach drug is tested at five (5) doses: 100 - 10 - 1 - 0.1 -0.01 μg/ml. Percent Growths are calculated for each dose. The two (or three) doses with growth values above, below, (or near to) 50% growth are used to calculate the ED50 /GI50 using a linear regression formula. The log of the dose is used during the regression computation. If no dose yields a growth value under 50%, the results are expressed as: ED50 >(highest dose). If no dose yields growth higher than 50% growth, then ED50 <(lowest dose). Similar calculations are performed for the TGI at 0% growth, and at -50% growth for the LC50.\nAt the start of an experiment, cells from the in vitro cell cultures are inoculated into the appropriate tubes or microtiter plates. One set of control tubes/plates is immediately counted to determine the number of cells at the start of the experiment. This is the \"baseline count\" or \"Tzero reading\". At the end of the experiment (48 hours later) a second set of control tubes/plates is analyzed to determine the \"Control Growth\" value. The growth (or death) of cells relative to the initial quantity of cells is used to define the \"Percent of Growth\".\nFor further information about the testing protocols and procedures see Anne Monks et al., \"Feasibility of a High-Flux Anticancer Drug Screen Using a Diverse Panel of Cultured Human Tumor Cell Lines\", 83 J. Nat. Cancer Inst. No. 11, pp. 757-66 (5 Jun. 1991) and […], \"Status of the NCI Preclinical Antitumor Drug Discovery Screen\" 3 Princ & Practice of Oncology Updates No. 10, pp. 1-12 (October 1989).\nBy definition a pro-drug is a precursor which will undergo metabolic activation in vivo to the active drug. […] Combretastatin A-4 (1a) and prodrug (1h) were then comparatively evaluated against the full-panel NCI screen (M. R. Boyd, \"Status of the NCI Preclinical Antitumor Drug Discovery Screen: Implications for Selection of New Agents for Clinical trial,\" 3 Cancer: Principles and Practice of Oncology Updates No. 10, pp1-12 (1989) and M. R. Boyd et al. \"The Future of New Drug Development. Section I. Introduction to Cancer Therapy,\" Current Therapy in Oncology. Philadelphia: Decker (1993)). […]"}, "tubulin": {"tested_on": "tubulin", "conditions": "Hamel et al., 1989; cited from earlier work"}, "[2]": {"experiment": "stability / reaction with water", "type": "physicochemical"}},
  "note": "Where two headings read alike, the source gives them in different places.",
  "data": [
    {"smiles": "COc1ccc(/C=C\\c2cc(OC)c(OC)c(OC)c2)cc1O", "note": "[Compound 1a, combretastatin A-4]", "values": [
      {"measurement": "cancer cell growth inhibition", "setting": "cancer cell", "result": "potent"},
      {"measurement": "GI50", "setting": "[1]; full-panel NCI screen, mean over panel, quadruplicate, 48 hours", "result": 6.61, "unit": "nM"},
      {"measurement": "tubulin assembly inhibition", "setting": "tubulin", "result": "potent"}
    ]},
    {"smiles": "COc1ccc(/C=C\\c2cc(OC)c(OC)c(OC)c2)cc1O", "note": "[Compound 1b]", "values": [
      {"measurement": "reaction with water", "setting": "[2]", "result": "regenerated combretastatin A-4"}
    ]},
    {"smiles": "COc1ccc(/C=C\\c2cc(OC)c(OC)c(OC)c2)cc1O", "note": "[Compound 1c]", "values": [
      {"measurement": "reaction with water", "setting": "[2]", "result": "regenerated combretastatin A-4"}
    ]},
    {"smiles": "COc1ccc(/C=C\\c2cc(OC)c(OC)c(OC)c2)cc1OC(=O)CCC(=O)O", "note": "[Compound 1d]", "values": [
      {"measurement": "aqueous solubility (in words)", "setting": "water solubility", "result": "essentially insoluble"},
      {"measurement": "reaction with water", "setting": "[2]", "result": "regenerated combretastatin A-4"}
    ]},
    {"smiles": "COc1ccc(/C=C\\c2cc(OC)c(OC)c(OC)c2)cc1OP(=O)(O)O", "note": "[Compound 1f, Ammonium hydrogen combretastatin A-4 3-O Phosphate]", "values": [
      {"measurement": "aqueous solubility (in words)", "setting": "water solubility", "result": "most soluble"}
    ]},
    {"smiles": "COc1ccc(/C=C\\c2cc(OC)c(OC)c(OC)c2)cc1OP(=O)(O)O", "note": "[Compound 1g, Dipotassium combretastatin A-4 3-O-phosphate]", "values": [
      {"measurement": "stability (in words)", "setting": "[2]", "result": "most stable"}
    ]},
    {"smiles": "COc1ccc(/C=C\\c2cc(OC)c(OC)c(OC)c2)cc1OP(=O)(O)O", "note": "[Compound 1h, Disodium combretastatin A-4 3-O-Phosphate]", "values": [
      {"measurement": "GI50", "setting": "[1]; 48 h", "result": 6.89, "unit": "nM"},
      {"measurement": "Pearson correlation coefficient for the differential cytotoxicity profiles (TGI-COMPARE)", "setting": "[1]; combretastatin A-4 (1a) vs its prodrug (1h)", "result": 0.91},
      {"measurement": "cell growth inhibitory activity", "setting": "[1]; compared with combretastatin (1a)", "result": "comparable"},
      {"measurement": "in vitro activity levels in the NCI 60 cell line panel", "setting": "[1]; compared with combretastatin A-4, activity level and COMPARE algorithm", "result": "reasonably similar"}
    ]}
  ]
}
